Test results published in ChEMBL document CHEMBL1687747, “Effect of mild and moderate liver disease on the pharmacokinetics of isavuconazole after intravenous and oral administration of a single dose of the prodrug BAL8557” (Antimicrob Agents Chemother, 2009).

How the values were obtained:
Settings in all cases: in vivo
Homo sapiens [1] = experiment: AUC (0 to infinity) in plasma of human with mild liver impairment assessed as isavuconazole level at 180.5 mg, iv administered as single dose over 2 hrs following overnight fasting by high-pressure liquid chromatography coupled with tandem mass spectrometry; type: ADME, organism-based; parameters: dose 180.5 mg, time infinity, route intravenous
Homo sapiens [2] = experiment: AUC (0 to infinity) in plasma of human with moderate liver impairment assessed as isavuconazole level at 180.5 mg, iv administered as single dose over 2 hrs following overnight fasting by high-pressure liquid chromatography coupled with tandem mass spectrometry; type: ADME, organism-based; parameters: dose 180.5 mg, route intravenous, time infinity
Homo sapiens [3] = experiment: AUC (0 to infinity) in healthy human plasma assessed as isavuconazole level at 180.5 mg, po administered as single dose over 2 hrs following overnight fasting by high-pressure liquid chromatography coupled with tandem mass spectrometry; type: ADME, organism-based; parameters: dose 180.5 mg, route oral, time infinity
Homo sapiens [4] = experiment: AUC (0 to infinity) in plasma of human with mild liver impairment assessed as isavuconazole level at 180.5 mg, po administered as single dose over 2 hrs following overnight fasting by high-pressure liquid chromatography coupled with tandem mass spectrometry; type: ADME, organism-based; parameters: dose 180.5 mg, route oral, time infinity
Homo sapiens [5] = experiment: AUC (0 to infinity) in plasma of human with moderate liver impairment assessed as isavuconazole level at 180.5 mg, po administered as single dose over 2 hrs following overnight fasting by high-pressure liquid chromatography coupled with tandem mass spectrometry; type: ADME, organism-based; parameters: dose 180.5 mg, route oral, time infinity
Homo sapiens [6] = experiment: Tmax in healthy human plasma assessed as isavuconazole level at 180.5 mg, po administered as single dose over 2 hrs following overnight fasting by high-pressure liquid chromatography coupled with tandem mass spectrometry; type: ADME, organism-based
Homo sapiens [7] = experiment: Tmax in plasma of human with mild liver impairment assessed as isavuconazole level at 180.5 mg, po administered as single dose over 2 hrs following overnight fasting by high-pressure liquid chromatography coupled with tandem mass spectrometry; type: ADME, organism-based
Homo sapiens [8] = experiment: Tmax in plasma of human with moderate liver impairment assessed as isavuconazole level at 180.5 mg, po administered as single dose over 2 hrs following overnight fasting by high-pressure liquid chromatography coupled with tandem mass spectrometry; type: ADME, organism-based
Homo sapiens [9] = experiment: Cmax in healthy human plasma assessed as isavuconazole level at 180.5 mg, iv administered as single dose over 2 hrs following overnight fasting by high-pressure liquid chromatography coupled with tandem mass spectrometry by HPLC-tandem mass spectrometry; type: ADME, organism-based; parameters: dose 180.5 mg, route intravenous
Homo sapiens [10] = experiment: Cmax in plasma of human with mild liver impairment assessed as isavuconazole level at 180.5 mg, iv administered as single dose over 2 hrs following overnight fasting by high-pressure liquid chromatography coupled with tandem mass spectrometry by HPLC-tandem mass spectrometry; type: ADME, organism-based; parameters: dose 180.5 mg, route intravenous
Homo sapiens [11] = experiment: Cmax in plasma of human with moderate liver impairment assessed as isavuconazole level at 180.5 mg, iv administered as single dose over 2 hrs following overnight fasting by high-pressure liquid chromatography coupled with tandem mass spectrometry by HPLC-tandem mass spectrometry; type: ADME, organism-based; parameters: dose 180.5 mg, route intravenous
Homo sapiens [12] = experiment: Cmax in healthy human plasma assessed as isavuconazole level at 180.5 mg, po administered as single dose over 2 hrs following overnight fasting by high-pressure liquid chromatography coupled with tandem mass spectrometry by HPLC-tandem mass spectrometry; type: ADME, organism-based; parameters: dose 180.5 mg, route oral
Homo sapiens [13] = experiment: Cmax in plasma of human with mild liver impairment assessed as isavuconazole level at 180.5 mg, po administered as single dose over 2 hrs following overnight fasting by high-pressure liquid chromatography coupled with tandem mass spectrometry by HPLC-tandem mass spectrometry; type: ADME, organism-based; parameters: dose 180.5 mg, route oral
Homo sapiens [14] = experiment: Cmax in plasma of human with moderate liver impairment assessed as isavuconazole level at 180.5 mg, po administered as single dose over 2 hrs following overnight fasting by high-pressure liquid chromatography coupled with tandem mass spectrometry by HPLC-tandem mass spectrometry; type: ADME, organism-based; parameters: dose 180.5 mg, route oral
Homo sapiens [15] = experiment: AUC (0 to infinity) in healthy human plasma assessed as isavuconazole level at 180.5 mg, iv administered as single dose over 2 hrs following overnight fasting by high-pressure liquid chromatography coupled with tandem mass spectrometry; type: ADME, organism-based; parameters: dose 180.5 mg, time infinity, route intravenous
Homo sapiens [16] = experiment: Systemic clearance in healthy human plasma assessed as isavuconazole level at 180.5 mg, iv administered as single dose over 2 hrs following overnight fasting by high-pressure liquid chromatography coupled with tandem mass spectrometry; type: ADME, organism-based
Homo sapiens [17] = experiment: Systemic clearance in plasma of human with mild liver impairment assessed as isavuconazole level at 180.5 mg, iv administered as single dose over 2 hrs following overnight fasting by high-pressure liquid chromatography coupled with tandem mass spectrometry; type: ADME, organism-based
Homo sapiens [18] = experiment: Systemic clearance in plasma of human with moderate liver impairment assessed as isavuconazole level at 180.5 mg, iv administered as single dose over 2 hrs following overnight fasting by high-pressure liquid chromatography coupled with tandem mass spectrometry; type: ADME, organism-based
Homo sapiens [19] = experiment: Oral clearance in healthy human plasma assessed as isavuconazole level at 180.5 mg, po administered as single dose over 2 hrs following overnight fasting by high-pressure liquid chromatography coupled with tandem mass spectrometry; type: ADME, organism-based
Homo sapiens [20] = experiment: Oral clearance in plasma of human with mild liver impairment assessed as isavuconazole level at 180.5 mg, po administered as single dose over 2 hrs following overnight fasting by high-pressure liquid chromatography coupled with tandem mass spectrometry; type: ADME, organism-based
Homo sapiens [21] = experiment: Oral clearance in plasma of human with moderate liver impairment assessed as isavuconazole level at 180.5 mg, po administered as single dose over 2 hrs following overnight fasting by high-pressure liquid chromatography coupled with tandem mass spectrometry; type: ADME, organism-based
Homo sapiens [22] = experiment: Volume of distribution at steady state in healthy human assessed as isavuconazole level at 180.5 mg, iv administered as single dose over 2 hrs following overnight fasting by high-pressure liquid chromatography coupled with tandem mass spectrometry; type: ADME, organism-based
Homo sapiens [23] = experiment: Volume of distribution at steady state in of human with mild liver impairment assessed as isavuconazole level at 180.5 mg, iv administered as single dose over 2 hrs following overnight fasting by high-pressure liquid chromatography coupled with tandem mass spectrometry; type: ADME, organism-based
Homo sapiens [24] = experiment: Volume of distribution at steady state in of human with moderate liver impairment assessed as isavuconazole level at 180.5 mg, iv administered as single dose over 2 hrs following overnight fasting by high-pressure liquid chromatography coupled with tandem mass spectrometry; type: ADME, organism-based
Homo sapiens [25] = experiment: Volume of distribution at steady state in healthy human assessed as isavuconazole level at 180.5 mg, po administered as single dose over 2 hrs following overnight fasting by high-pressure liquid chromatography coupled with tandem mass spectrometry; type: ADME, organism-based
Homo sapiens [26] = experiment: Volume of distribution at steady state in of human with mild liver impairment assessed as isavuconazole level at 180.5 mg, po administered as single dose over 2 hrs following overnight fasting by high-pressure liquid chromatography coupled with tandem mass spectrometry; type: ADME, organism-based
Homo sapiens [27] = experiment: Volume of distribution at steady state in of human with moderate liver impairment assessed as isavuconazole level at 180.5 mg, po administered as single dose over 2 hrs following overnight fasting by high-pressure liquid chromatography coupled with tandem mass spectrometry; type: ADME, organism-based
Homo sapiens [28] = experiment: Terminal half life in healthy human assessed as isavuconazole level at 180.5 mg, iv administered as single dose over 2 hrs following overnight fasting by high-pressure liquid chromatography coupled with tandem mass spectrometry; type: ADME, organism-based
Homo sapiens [29] = experiment: Terminal half life in human with mild liver impairment assessed as isavuconazole level at 180.5 mg, iv administered as single dose over 2 hrs following overnight fasting by high-pressure liquid chromatography coupled with tandem mass spectrometry; type: ADME, organism-based
Homo sapiens [30] = experiment: Terminal half life in human with moderate liver impairment assessed as isavuconazole level at 180.5 mg, iv administered as single dose over 2 hrs following overnight fasting by high-pressure liquid chromatography coupled with tandem mass spectrometry; type: ADME, organism-based
Homo sapiens [31] = experiment: Terminal half life in healthy human assessed as isavuconazole level at 180.5 mg, po administered as single dose over 2 hrs following overnight fasting by high-pressure liquid chromatography coupled with tandem mass spectrometry; type: ADME, organism-based
Homo sapiens [32] = experiment: Terminal half life in human with mild liver impairment assessed as isavuconazole level at 180.5 mg, po administered as single dose over 2 hrs following overnight fasting by high-pressure liquid chromatography coupled with tandem mass spectrometry; type: ADME, organism-based
Homo sapiens [33] = experiment: Terminal half life in human with moderate liver impairment assessed as isavuconazole level at 180.5 mg, po administered as single dose over 2 hrs following overnight fasting by high-pressure liquid chromatography coupled with tandem mass spectrometry; type: ADME, organism-based
Homo sapiens [34] = experiment: AUC (0 to t) in healthy human at 180.5 mg, iv administered as single dose over 2 hrs following overnight fasting by high-pressure liquid chromatography coupled with tandem mass spectrometry; type: ADME, organism-based, Plasma; parameters: time < 2 hr, dose 180.5 mg, route intravenous
Homo sapiens [35] = experiment: AUC (0 to t) in human with mild liver impairment at 180.5 mg, iv administered as single dose over 2 hrs following overnight fasting by high-pressure liquid chromatography coupled with tandem mass spectrometry; type: ADME, organism-based; parameters: time < 2 hr, dose 180.5 mg, route intravenous
Homo sapiens [36] = experiment: AUC (0 to t) in human with moderate liver impairment at 180.5 mg, iv administered as single dose over 2 hrs following overnight fasting by high-pressure liquid chromatography coupled with tandem mass spectrometry; type: ADME, organism-based; parameters: dose 180.5 mg, time < 2 hr, route intravenous
Homo sapiens [37] = experiment: AUC (0 to t) in healthy human assessed as metabolite BAL8728 level at 180.5 mg, iv administered as single dose over 2 hrs following overnight fasting by high-pressure liquid chromatography coupled with tandem mass spectrometry; type: ADME, organism-based, Plasma; parameters: dose 180.5 mg, time < 2 hr, route intravenous
Homo sapiens [38] = experiment: Toxicity in healthy human at 180.5 mg, iv administered as single dose over 2 hrs following overnight fasting; type: organism-based
Homo sapiens [39] = experiment: Toxicity in of human with mild liver impairment at 180.5 mg, iv administered as single dose over 2 hrs following overnight fasting; type: organism-based
Homo sapiens [40] = experiment: Toxicity in of human with moderate liver impairment at 180.5 mg, iv administered as single dose over 2 hrs following overnight fasting; type: organism-based
Homo sapiens [41] = experiment: Toxicity in of human with moderate liver impairment at 180.5 mg, po administered as single dose over 2 hrs following overnight fasting; type: organism-based
Homo sapiens [42] = experiment: Toxicity in of human with mild liver impairment at 180.5 mg, po administered as single dose over 2 hrs following overnight fasting; type: organism-based
Homo sapiens [43] = experiment: Toxicity in healthy human at 180.5 mg, po administered as single dose over 2 hrs following overnight fasting; type: organism-based
Homo sapiens [44] = experiment: AUC (0 to t) in human with mild liver impairment assessed as metabolite BAL8728 level at 180.5 mg, iv administered as single dose over 2 hrs following overnight fasting by high-pressure liquid chromatography coupled with tandem mass spectrometry; type: ADME, organism-based; parameters: dose 180.5 mg, time < 2 hr, route intravenous
Homo sapiens [45] = experiment: AUC (0 to t) in human with moderate liver impairment assessed as metabolite BAL8728 level at 180.5 mg, iv administered as single dose over 2 hrs following overnight fasting by high-pressure liquid chromatography coupled with tandem mass spectrometry; type: ADME, organism-based; parameters: dose 180.5 mg, time < 2 hr, route intravenous

CNCC(=O)OCc1cccnc1N(C)C(=O)OC(C)[n+]1cnn(C[C@](O)(c2cc(F)ccc2F)[C@@H](C)c2nc(-c3ccc(C#N)cc3)cs2)c1.Cl.[Cl-] (stereo not given in full)
AUC (Homo sapiens [1]): 72 µg/h/mL
AUC (Homo sapiens [2]): 101 µg/h/mL
AUC (Homo sapiens [3]): 45 µg/h/mL
AUC (Homo sapiens [4]): 98 µg/h/mL
AUC (Homo sapiens [5]): 62 µg/h/mL
Tmax (Homo sapiens [6]): 2.4 h
Tmax (Homo sapiens [7]): 2.7 h
Tmax (Homo sapiens [8]): 2.6 h
Cmax (Homo sapiens [9]): 1090 ng/mL
Cmax (Homo sapiens [10]): 980 ng/mL
Cmax (Homo sapiens [11]): 840 ng/mL
Cmax (Homo sapiens [12]): 840 ng/mL
Cmax (Homo sapiens [13]): 730 ng/mL
Cmax (Homo sapiens [14]): 470 ng/mL
AUC (Homo sapiens [15]): 39 µg/h/mL
CL (Homo sapiens [16]): 2.73 L/h
CL (Homo sapiens [17]): 1.93 L/h
CL (Homo sapiens [18]): 1.43 L/h
CL (Homo sapiens [19]): 2.38 L/h
CL (Homo sapiens [20]): 1.26 L/h
CL (Homo sapiens [21]): 1.82 L/h
Vdss (Homo sapiens [22]): 422 L
Vdss (Homo sapiens [23]): 492 L
Vdss (Homo sapiens [24]): 471 L
Vdss (Homo sapiens [25]): 475 L
Vdss (Homo sapiens [26]): 485 L
Vdss (Homo sapiens [27]): 598 L
beta t1/2 (Homo sapiens [28]): 123 h
beta t1/2 (Homo sapiens [29]): 224 h
beta t1/2 (Homo sapiens [30]): 302 h
beta t1/2 (Homo sapiens [31]): 148 h
beta t1/2 (Homo sapiens [32]): 292 h
beta t1/2 (Homo sapiens [33]): 240 h
AUC (Homo sapiens [34]): 0.195 µg/h/mL
AUC (Homo sapiens [35]): 0.375 µg/h/mL
AUC (Homo sapiens [36]): 0.433 µg/h/mL
AUC (Homo sapiens [37]): 0.606 µg/h/mL
Activity (Homo sapiens [38]): Non-toxic
Activity (Homo sapiens [39]): Non-toxic
Activity (Homo sapiens [40]): Non-toxic
Activity (Homo sapiens [41]): Non-toxic
Activity (Homo sapiens [42]): Non-toxic
Activity (Homo sapiens [43]): Non-toxic
AUC (Homo sapiens [44]): 0.685 µg/h/mL
AUC (Homo sapiens [45]): 0.583 µg/h/mL
